Experimental data: patent publication US20210177828A1, “TAM FAMILY KINASE /AND CSF1R KINASE INHIBITOR AND USE THEREOF” (Nanjing Transthera Biosciences Co., Ltd., priority 2018, published 2021)

What was measured:
Assay type in all cases: biochemical
Mer (h) = biological target: T1, Mer (h) (Homo sapiens, UniProt Q12866); assay: Enzymatic activity assay, Mer (h), [γ-33P]-ATP filter assay; settings: 10 μM ATP, 40 min room temperature; read-out: Inhibitory activity IC50 Mer(h)
T1 sequence (Q12866 21-999): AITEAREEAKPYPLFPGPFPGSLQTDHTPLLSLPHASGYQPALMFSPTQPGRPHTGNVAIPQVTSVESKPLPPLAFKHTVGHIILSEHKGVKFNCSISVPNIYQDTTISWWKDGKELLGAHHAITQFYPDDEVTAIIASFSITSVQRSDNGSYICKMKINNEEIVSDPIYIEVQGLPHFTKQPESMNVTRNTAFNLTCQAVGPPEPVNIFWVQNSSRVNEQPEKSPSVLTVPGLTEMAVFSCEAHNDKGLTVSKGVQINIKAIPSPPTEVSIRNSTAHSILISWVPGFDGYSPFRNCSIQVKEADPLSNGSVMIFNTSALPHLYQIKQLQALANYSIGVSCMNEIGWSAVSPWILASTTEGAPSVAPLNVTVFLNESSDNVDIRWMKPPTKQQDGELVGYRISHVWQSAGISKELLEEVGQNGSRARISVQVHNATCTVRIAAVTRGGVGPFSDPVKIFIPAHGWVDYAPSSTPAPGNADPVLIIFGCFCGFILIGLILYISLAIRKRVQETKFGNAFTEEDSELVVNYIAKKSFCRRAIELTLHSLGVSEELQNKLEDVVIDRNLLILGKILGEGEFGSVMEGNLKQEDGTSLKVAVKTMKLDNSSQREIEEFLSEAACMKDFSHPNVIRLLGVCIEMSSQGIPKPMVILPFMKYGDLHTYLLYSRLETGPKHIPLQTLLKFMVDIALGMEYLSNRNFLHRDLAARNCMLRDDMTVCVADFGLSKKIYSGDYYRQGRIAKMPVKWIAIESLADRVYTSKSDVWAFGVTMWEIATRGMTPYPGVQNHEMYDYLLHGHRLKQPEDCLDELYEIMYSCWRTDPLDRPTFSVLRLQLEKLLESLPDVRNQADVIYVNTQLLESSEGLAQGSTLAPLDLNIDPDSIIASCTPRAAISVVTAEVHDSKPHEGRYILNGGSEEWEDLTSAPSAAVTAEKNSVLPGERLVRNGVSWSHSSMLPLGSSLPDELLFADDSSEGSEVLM
Description: (§1) Compounds were each dissolved in 100% DMSO to prepare stock solutions with a maximum concentration of 500 μM.
(§2) Compound working solutions (50×) were prepared by diluting a compound stock solution to a final concentration of 500, 150, 50, 15, 5, 1.5, 0.5, 0.15 and 0.05 μM.
An enzyme solution with a final concentration of 3.1 nM was prepared by dissolving Mer (h) enzyme in a mixture of 8 mM MOPS (pH 7.0), 0.2 mM EDTA, 30 mM NaCl and 250 μM GGMEDIYFEFMGGKKK. A Mg/ATP mixture of 10 mM magnesium acetate and 10 μM [γ-^33P]-ATP was used to activate the enzymatic reaction.
(§3) A compound working solution was added to a 384-well plate, with final concentrations of 10,000, 3,000, 1,000, 300, 100, 30, 10, 3 and 1 nM, and then different enzymatic reaction solutions prepared according to the above conditions were added. The reaction solutions were incubated at room temperature for 40 min, and then 0.5% phosphoric acid solutions were added to terminate the reaction. 10 μL of the reaction solution was added dropwise to P30 filter paper, washed 4 times with a 0.425% phosphoric acid solution and once with methanol, and then placed in a scintillation counter for detection. Gray analysis was performed on the results with Image J software, and IC50 values were calculated with GraphPad 5.0 software.

Axl (h) = biological target: T2, Axl (h) (Homo sapiens, UniProt P30530); assay: Enzymatic activity assay, Axl (h), [γ-33P]-ATP filter assay; settings: 10 μM ATP, 40 min room temperature; read-out: Inhibitory activity IC50 Axl(h)
T2 sequence (P30530 26-894): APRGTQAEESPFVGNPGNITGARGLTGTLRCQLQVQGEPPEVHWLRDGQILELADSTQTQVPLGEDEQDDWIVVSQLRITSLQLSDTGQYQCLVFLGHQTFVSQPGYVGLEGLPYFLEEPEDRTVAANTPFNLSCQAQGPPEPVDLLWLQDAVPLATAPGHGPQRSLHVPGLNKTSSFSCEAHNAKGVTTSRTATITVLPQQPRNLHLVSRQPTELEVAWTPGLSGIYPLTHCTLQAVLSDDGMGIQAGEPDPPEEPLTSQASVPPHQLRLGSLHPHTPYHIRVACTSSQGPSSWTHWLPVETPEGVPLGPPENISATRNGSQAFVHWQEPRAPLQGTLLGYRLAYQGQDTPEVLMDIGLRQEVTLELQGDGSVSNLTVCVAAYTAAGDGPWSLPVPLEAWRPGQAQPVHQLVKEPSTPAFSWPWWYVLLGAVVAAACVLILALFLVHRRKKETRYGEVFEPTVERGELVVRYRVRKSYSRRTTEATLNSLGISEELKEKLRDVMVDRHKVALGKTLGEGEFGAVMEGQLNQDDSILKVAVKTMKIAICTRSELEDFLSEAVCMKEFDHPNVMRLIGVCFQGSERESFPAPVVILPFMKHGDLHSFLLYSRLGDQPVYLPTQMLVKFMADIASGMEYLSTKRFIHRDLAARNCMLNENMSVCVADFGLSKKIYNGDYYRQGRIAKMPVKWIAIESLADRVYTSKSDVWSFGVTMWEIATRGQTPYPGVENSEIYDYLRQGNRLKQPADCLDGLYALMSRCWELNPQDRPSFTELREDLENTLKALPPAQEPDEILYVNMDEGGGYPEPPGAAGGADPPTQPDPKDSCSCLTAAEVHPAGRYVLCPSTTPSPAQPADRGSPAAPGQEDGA
Description: as §1, §2
An enzyme solution with a final concentration of 1.7 nM was prepared by dissolving Axl (h) enzyme in a mixture of 8 mM MOPS (pH 7.0), 0.2 mM EDTA and 250 μM KKSRGDYMTMQIG. A Mg/ATP mixture of 10 mM magnesium acetate and 10 μM [γ-^33P]-ATP was used to activate the enzymatic reaction.
as §3

CSF1R (h) = CSF1R (h) (Homo sapiens, UniProt P07333); assay: Enzymatic activity assay, CSF1R (h), [γ-33P]-ATP filter assay; settings: 10 μM ATP, 40 min room temperature; read-out: Inhibitory activity IC50 CSF1R(h)
Description: as §1, §2
An enzyme solution with a final concentration of 64 nM was prepared by dissolving CSF1R enzyme in a mixture of 8 mM MOPS (pH 7.0), 0.2 mM EDTA and 250 μM KKSRGDYMTMQIG. A Mg/ATP mixture of 10 mM magnesium acetate and 10 μM [γ-^33P]-ATP was used to activate the enzymatic reaction.
as §3

Sequence of CSF1R (h) (P07333 20-972): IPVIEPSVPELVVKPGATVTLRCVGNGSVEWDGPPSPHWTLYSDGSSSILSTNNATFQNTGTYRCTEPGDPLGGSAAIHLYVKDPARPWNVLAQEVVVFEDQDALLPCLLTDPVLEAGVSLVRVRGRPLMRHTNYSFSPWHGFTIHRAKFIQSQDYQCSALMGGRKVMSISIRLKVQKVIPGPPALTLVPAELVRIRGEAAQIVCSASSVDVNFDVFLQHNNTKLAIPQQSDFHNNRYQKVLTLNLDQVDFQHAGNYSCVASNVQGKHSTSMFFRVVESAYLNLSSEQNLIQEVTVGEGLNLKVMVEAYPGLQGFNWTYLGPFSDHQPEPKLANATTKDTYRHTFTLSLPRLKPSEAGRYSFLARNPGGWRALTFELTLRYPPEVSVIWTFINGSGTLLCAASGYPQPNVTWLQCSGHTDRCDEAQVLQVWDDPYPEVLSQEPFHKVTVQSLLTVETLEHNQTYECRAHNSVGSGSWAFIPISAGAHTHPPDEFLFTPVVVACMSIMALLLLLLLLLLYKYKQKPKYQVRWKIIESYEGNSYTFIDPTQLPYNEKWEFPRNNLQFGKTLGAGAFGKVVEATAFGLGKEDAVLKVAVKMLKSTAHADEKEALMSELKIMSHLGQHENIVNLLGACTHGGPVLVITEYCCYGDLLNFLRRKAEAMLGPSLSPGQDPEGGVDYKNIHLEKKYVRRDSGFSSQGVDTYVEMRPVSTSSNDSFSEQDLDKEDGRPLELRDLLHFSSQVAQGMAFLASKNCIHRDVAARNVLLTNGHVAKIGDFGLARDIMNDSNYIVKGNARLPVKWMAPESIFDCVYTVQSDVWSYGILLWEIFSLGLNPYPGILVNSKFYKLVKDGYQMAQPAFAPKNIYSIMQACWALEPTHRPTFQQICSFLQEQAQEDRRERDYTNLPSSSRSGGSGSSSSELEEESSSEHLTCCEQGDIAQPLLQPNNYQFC

## COc1cc2nccc(Oc3ccc(NC(=O)c4cn(CC5CCOCC5)cc(-c5ccc(C)cc5)c4=O)nc3)c2cc1OC [Compound 1, N-(5-((6,7-dimethoxyquinolin-4-yl)oxy)pyridin-2-yl)-4-oxo-1-((tetrahydro-2H-pyran-4-yl)methyl)-5-(p-tolyl)-1,4-dihydropyridin-3-carboxamide]
Mer (h)
  IC50: 2 nM
Axl (h)
  IC50: 5 nM

## COc1cc2nccc(Oc3ccc(NC(=O)c4nn(CC5CCOCC5)cc(-c5ccc(C)cc5)c4=O)nc3)c2cc1OC [Compound 2, N-(5-((6,7-dimethoxyquinolin-4-yl)oxy)pyridin-2-yl)-4-oxo-1-((tetrahydro-2H-pyran-4-yl)methyl)-5-(p-tolyl)-1,4-dihydropyridazin-3-carboxamide]
Mer (h)
  IC50: < 1 nM
CSF1R (h)
  IC50: < 200 nM
Axl (h)
  IC50: 7 nM

## COc1cc2nccc(Oc3cnc(NC(=O)c4cn(CC5CCOCC5)cc(-c5ccc(C)cc5)c4=O)nc3)c2cc1OC [Compound 4, N-(5-((6,7-dimethoxyquinolin-4-yl)oxy)pyrimidin-2-yl)-4-oxo-1-((tetrahydro-2H-pyran-4-yl)methyl)-5-(p-tolyl)-1,4-dihydropyridin-3-carboxamide]
Mer (h)
  IC50: 5 nM
CSF1R (h)
  IC50: < 200 nM
Axl (h)
  IC50: 9 nM

## COc1cc2nccc(Oc3ccc(NC(=O)c4cn(CC5CCS(=O)(=O)CC5)cc(-c5ccc(C)cc5)c4=O)nc3)c2cc1OC [Compound 7, N-(5-((6,7-dimethoxyquinolin-4-yl)oxy)pyridin-2-yl)-1-((1,1-dioxotetrahydro-2H-thiopyran-4-yl)methyl)-4-oxo-5-(p-tolyl)-1,4-dihydropyridin-3-carboxamide]
Mer (h)
  IC50: 50 nM
Axl (h)
  IC50: 20 nM

## COc1cc2nccc(Oc3ccc(NC(=O)c4cn(CC5CC[S+]([O-])CC5)cc(-c5ccc(C)cc5)c4=O)nc3)c2cc1OC (centres unmarked) [Compound 8, N-(5-((6,7-dimethoxyquinolin-4-yl)oxy)pyridin-2-yl)-1-((1-oxotetrahydro-2H-thiopyran-4-yl)methyl)-4-oxo-5-(p-tolyl)-1,4-dihydropyridin-3-carboxamide]
Mer (h)
  IC50: 73 nM
Axl (h)
  IC50: 6 nM

## COc1cc2nccc(Oc3ccc(NC(=O)c4cn(CC5CCSCC5)cc(-c5ccc(C)cc5)c4=O)nc3)c2cc1OC [Compound 9, N-(5-((6,7-dimethoxyquinolin-4-yl)oxy)pyridin-2-yl)-4-oxo-1-((tetrahydro-2H-thiopyran-4-yl)methyl)-5-(p-tolyl)-1,4-dihydropyridin-3-carboxamide]
Mer (h)
  IC50: 5 nM
Axl (h)
  IC50: 35 nM

## COc1cc2nccc(Oc3ccc(NC(=O)c4cc(-c5ccc(C)cc5)cn(CC5CCOCC5)c4=O)nc3)c2cc1OC [Compound 13, N-(5-((6,7-dimethoxyquinolin-4-yl)oxy)pyridin 2yl)-2-oxo-1-((tetrahydro-2H-pyran-4-yl)methyl)-5-(p-tolyl)-1,2-dihydropyridin-3-carboxamide]
Mer (h)
  IC50: 8 nM
Axl (h)
  IC50: 23 nM

## COc1cc2nccc(Oc3cnc(NC(=O)c4nn(CC5CCOCC5)cc(-c5ccc(C)cc5)c4=O)nc3)c2cc1OC [Compound 16, N-(5-((6,7-dimethoxyquinolin-4-yl)oxy)pyrimidin-2-yl)-4-oxo-1-((tetrahydro-2H-pyran-4-yl)methyl)-5-(p-tolyl)-1,4-dihydropyridazin-3-carboxamide]
Mer (h)
  IC50: 3 nM
CSF1R (h)
  IC50: < 200 nM
Axl (h)
  IC50: 4 nM

## COc1cc2nccc(Oc3ccc(NC(=O)c4nn(C5CCOCC5)cc(-c5ccc(C)cc5)c4=O)nc3)c2cc1OC [Compound 17, N-(5-((6,7-dimethoxyquinolin-4-yl)oxy)pyridin-2-yl)-4-oxo-1-(tetrahydro-2H-pyran-4-yl)-5-(p-tolyl)-1,4-dihydropyridazin-3-carboxamide]
Mer (h)
  IC50: 1 nM
CSF1R (h)
  IC50: < 200 nM
Axl (h)
  IC50: 3 nM

## COc1cc2nccc(Oc3ccc(NC(=O)c4cn(C5CCOCC5)cc(-c5ccc(C)cc5)c4=O)nc3)c2cc1OC [Compound 19, N-(5-((6,7-dimethoxyquinolin-4-yl)oxy)pyridin-2-yl)-4-oxo-1-(tetrahydro-2H-pyran-4-yl)-5-(p-tolyl)-1,4-dihydropyridin-3-carboxamide]
Mer (h)
  IC50: 4 nM
Axl (h)
  IC50: 12 nM

## COc1cc2nccc(Oc3ccc(NC(=O)c4cn(CC5CCOCC5)cc(-c5ccc(C)cc5)c4=O)nn3)c2cc1OC [Compound 24, N-(6-((6,7-dimethoxyquinolin-4-yl)oxy)pyridazin-3-yl)-4-oxo-1-((tetrahydro-2H-pyran-4-yl)methyl)-5-(p-tolyl)-1,4-dihydropyridin-3-carboxamide]
Mer (h)
  IC50: 34 nM
Axl (h)
  IC50: 9 nM

## COc1cc2nccc(Oc3ccc(NC(=O)c4cn(CC5CCOCC5)c5ccccc5c4=O)nc3)c2cc1OC [Compound 25, N-(5-((6,7-dimethoxyquinolin-4-yl)oxy)pyridin-2-yl)-4-oxo-1-((tetrahydro-2H-pyran-4-yl)methyl)-1,4-dihydroquinolin-3-carboxamide]
Mer (h)
  IC50: 15 nM
Axl (h)
  IC50: 11 nM

## Cc1ccc(-c2cn(C3CCOCC3)nc(C(=O)Nc3ccc(Oc4ccnc5cc6c(cc45)OCO6)cn3)c2=O)cc1 [Compound 29, N-(5-([1,3]dioxolo[4,5-g]quinolin-8-yloxy)pyridin-2-yl)-4-oxo-1-(tetrahydro-2H-pyran-4-yl)-5-(p-tolyl)-1,4-dihydropyridazin-3-carboxamide]
Mer (h)
  IC50: 48 nM
Axl (h)
  IC50: 28 nM

## Cc1ccc(-c2cn(C3CCOCC3)nc(C(=O)Nc3ccc(Oc4ccnc5cc6c(cc45)OCCO6)cn3)c2=O)cc1 [Compound 30, N-(5-((2,3-dihydro-[1,4]dioxino[2,3-g]quinolin-9-yl)oxy)pyridin-2-yl)-4-oxo-1-(tetrahydro-2H-pyran-4-yl)-5-(p-tolyl)-1,4-dihydropyridazin-3-carboxamide]
Mer (h)
  IC50: 20 nM
Axl (h)
  IC50: 39 nM
